These are literature values, as cited in US6399640B1, “Arylthiazolidinedione and aryloxazolidinedione derivatives” (Merck & Co., Inc., priority 1999, dated 2002).

The test system of one series is ob/ob mice. Particulars: Cantello et al, J. Med. Chem. 1994.
In another series the test system is PPARγ. Particulars: subsequent studies; Willson et al, J. Med. Chem. 1996.
Another series has as its system diabetic mouse model. Conditions: Sohda et al, Chem. Pharm. Bull. 1982.

For the compound `CN(CCOc1ccc(C2SC(=O)NC2=O)cc1)c1nc2ccccc2o1` (stereo not drawn) [(1)], in the series on ob/ob mice, the antihyperglycemic activity entry is given as “no antihyperglycemic activity”. Besides, the “amounts required for PPARγ activation” value in the series with PPARγ is “relatively high amounts”.

For the compound `O=C1NC(=O)C(c2ccc(OCCc3ccccc3)cc2)S1` (stereo not drawn) [(2), 5-[4-(phenylethoxy)phenyl]-2,4-thiazolidinedione], in the series with diabetic mouse model, the antihyperglycemic effect entry is recorded as “no antihyperglycemic effect”.
